Experimental data taken from patent US20230028441A1, “NOVEL HETEROARYL-TRIAZOLE COMPOUNDS AS PESTICIDES” (Bayer Aktiengesellschaft, priority 2019, published 2023).

Legend:
Type in all cases: in vivo
[1] = test system: larvae of the southern green stink bug (Nezara viridula); test: Nezara viridula spray test; details: in Hordeum vulgare, 96 h
Method in brief: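 Barley plants infested with Nezara viridula larvae were sprayed with compound in acetone/dimethylformamide, diluted in water containing 1000 ppm alkylarylpolyglycol ether emulsifier. Mortality (%) was scored after 4 days; 100% means all stink bugs killed.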

[2] = test system: green peach aphid (Myzus persicae); test: Myzus persicae spray test; details: foliar, 120 h, after 5 days, Chinese cabbage leaf disks
Procedure: Solvent: 78.0 parts by weight acetone • 1.5 parts by weight dimethylformamide
(§1) Emulsifier: alkylarylpolyglycol ether
(§2) To produce a suitable preparation of active compound, 1 part by weight of active compound is mixed with the stated amount of solvents and is diluted with water, containing an emulsifier concentration of 1000 ppm, to the desired concentration. Further test concentrations are prepared by dilution with emulsifier containing water.
Chinese cabbage (Brassica pekinensis) leaf disks infected with all instars of the green peach aphid (Myzus persicae), are sprayed with a preparation of the active ingredient of the desired concentration.
After 5 days mortality in % is determined. 100% means all aphids have been killed and 0% means none of the aphids have been killed.

[3] = test system: larvae of the banded cucumber beetle (Diabrotica balteata); test: Diabrotica balteata spray test; details: 168 h, after 7 days, wheat seeds, read-out: efficacy (seedlings grown up); for pest or weed control at 32 µg/disc, 100 g/ha: 100 g/ha (=32 μg/well)
Method in brief: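 Germinated wheat seedlings (5 per well, agar plates) sprayed with compound in acetone/DMF diluted in water with 1000 ppm emulsifier, then infested with 10-20 larvae per unit. Efficacy scored after 7 days as % seedling growth relative to untreated, uninfested control (100% = normal growth, 0% = none).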

[4] = test system: green peach aphid (Myzus persicae); test: Myzus persicae oral test; details: 120 h
Method in brief: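 Oral uptake format: water-diluted acetone concentrate of compound is blended into IPL41 medium carrying 33%+15% sugar and offered under a parafilm membrane. Percentage of dead insects is recorded after 5 days.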

[5] = test system: adult unfed cat fleas (Ctenocephalides felis); test: Ctenocephalides felis oral test; details: 48 h, 100 ppm in cattle blood, after 2 days
Method in brief: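 About 20 adult unfed Ctenocephalides felis fed through parafilm on cattle blood dosed with compound (DMSO stock diluted in blood), blood chamber at 37°C, fleas at room temperature. Mortality (%) scored after 2 days; 100% means all fleas killed.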

[6] = test system: brown planthopper (Nilaparvata lugens); test: Nilaparvata lugens spray test; details: in Oryza sativa, 96 h
Procedure: Solvent: 78.0 parts by weight of acetone • • 1.5 parts by weight of dimethylformamide
as §1, §2
Rice plants (Oryza sativa) are sprayed with a preparation of the active ingredient of the desired concentration and the plants are infested with the brown planthopper (Nilaparvata lugens).
After 4 days mortality in % is determined. 100% means all planthoppers have been killed and 0% means none of the planthoppers have been killed.

[7] = test system: cattle tick larvae (Rhipicephalus microplus), strain Parkhurst, resistant against synthetic pyrethroids; test: Rhipicephalus (Boophilus) microplus in-vitro contact test, larval cattle tick; details: 5 μg/cm^2 (=500 g/ha), after 48 hours, read-out: efficacy (larvae dead or moribund)
Method in brief: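 Acetone solutions of compound were coated on glass tube walls (900 ppm giving 5 μg/cm^2) and dried. 20–50 pyrethroid-resistant Parkhurst larvae were held per tube at 27° C and 85% relative humidity; after 48 h negative geotaxis scored efficacy as percent larvae dead or moribund.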

[8] = test system: adult engorged female ticks (Rhipicephalus microplus); test: Rhipicephalus (Boophilus) microplus injection test; details: 168 h, egg deposition after 7 days, read-out: efficacy (infertile eggs)
Method in brief: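 Compound was dissolved in DMSO at 10 mg per 0.5 mL and diluted with DMSO to the test concentration. Five engorged adult females received a 1 μL abdominal injection and were kept in a climate chamber. After 7 days, fertile egg deposition was scored, with unclear eggs held until hatching at about 42 days; 100% efficacy means all eggs were infertile.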

[9] = test system: fall armyworm larvae (Spodoptera frugiperda); test: Spodoptera frugiperda spray test (maize leaf sections); details: 168 h
Method in brief: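 Maize leaf sections were sprayed with compound formulated in acetone/DMF and diluted in water containing 1000 ppm emulsifier. Once dry, sections were infested with fall armyworm larvae. Mortality (%) was scored after 7 days.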

[10] = test system: adult cat fleas (Ctenocephalides felis); test: Ctenocephalides felis in-vitro contact test, adult cat flea; details: 5 μg/cm^2 (=500 g/ha), after 48 hours, read-out: efficacy (fleas dead or moribund)
Procedure: 9 mg compound is solved in 1 mL acetone and diluted with acetone to the desired concentration. 250 μL of the test solution is filled in 25 mL glass test tubes and homogeneously distributed on the inner walls by rotation and tilting on a shaking device (2 h at 30 rpm). With a compound concentration of 900 ppm, an inner surface of 44.7 cm^2 and a homogeneous distribution, a dose of 5 μg/cm^2 is achieved.
After the solvent has evaporated, each test tube is filled with 5-10 adult cat fleas (Ctenocephalides felis), closed with a perforated lid and incubated in a lying position at room temperature and relative humidity. After 48 hours efficacy is determined. The fleas are patted on the ground of the tubes and are incubated on a heating plate at 45-50° C. for at most 5 minutes. Immotile or uncoordinated moving fleas, which are not able to escape the heat by climbing upwards, are marked as dead or moribund.
An efficacy of 100% means all fleas are dead or moribund; 0% means no fleas are dead or moribund.

[11] = test system: adult brown dog ticks (Rhipicephalus sanguineus); test: Rhipicephalus sanguineus in-vitro contact test with adult brown dog ticks; details: after 48 hours, read-out: efficacy (ticks dead or moribund); for pest or weed control at 1 µg/cm2, 100 g/ha: 1 μg/cm^2 (=100 g/ha); for pest or weed control at 5 µg/cm2, 500 g/ha: 5 μg/cm^2 (=500 g/ha)
Method in brief: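 Compound in acetone coated onto glass tube inner walls at 900 ppm, giving 5 μg/cm^2. Adult ticks (5-10 per tube) held at room temperature for 48 h, then placed on a 45-50° C. heating plate for up to 5 min. Ticks unable to climb away counted dead or moribund; efficacy given as % dead/moribund.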

| SMILES | mortality at 500 g/ha [1] [%] | mortality at 500 g/ha [6] [%] | pest or weed control at 5 µg/cm2 [7] [%] | mortality at 100 g/ha [9] [%] | pest or weed control at 32 µg/disc, 100 g/ha [3] [%] | pest or weed control at 5 µg/cm2 [10] [%] | mortality at 100 g/ha [2] [%] | also measured |
| --- | --- | --- | --- | --- | --- | --- | --- | --- |
| CC(NC(=O)c1cc(Cl)cc(S(C)(=O)=O)c1)c1nc([S+](C)[O-])nn1-c1ccc(Cl)cn1 (racemic) [I-061, 3-chloro-N-[1-[2-(5-chloro-2-pyridyl)-5-methylsulfinyl-1,2,4-triazol-3-yl]ethyl]-5-methylsulfonyl-benzamide] | 100 | – | – | – | – | – | – | mortality at 100 g/ha [1]: 100%; mortality at 500 g/ha ([2]; 500 g/ha): 90%; pest or weed control at 160 µg/disc, 500 g/ha ([3]; 500 g/ha (=160 μg/well)): 100%; mortality at 4 ppm [4]: 100% |
| CNc1nc(C(C)NC(=O)c2cc(Cl)cc(Br)c2)n(-c2ncccn2)n1 (stereo not drawn) [I-121] | – | 90 | 100 | 100 | 100 | 100 | – | mortality at 100 ppm [5]: 100%; pest or weed control at 0.004 mg ([8]; 4 μg/animal): 100%; pest or weed control at 0.02 mg ([8]; 20 μg/animal): 100% |
| CNc1nc([C@H](C)NC(=O)c2cc(Br)cc(Br)c2)n(-c2ncccn2)n1 [I-131] | 100 | 90 | 100 | 100 | 100 | 100 | – | pest or weed control at 1 µg/cm2, 100 g/ha [11]: 100%; pest or weed control at 5 µg/cm2, 500 g/ha [11]: 100% |
| C[C@H](NC(=O)c1cc(C(F)(F)F)cc(C(F)(F)F)c1)c1nc(N(C)C(=O)OC(C)(C)C)nn1-c1ncccn1 [I-133, tert-butyl N-[5-[(1S)-1-[[3,5-bis(trifluoromethyl)benzoyl]amino]ethyl]-1-pyrimidin-2-yl-1,2,4-triazol-3-yl]-N-methyl-carbamate] | 100 | 100 | 100 | 100 | 100 | 100 | – | – |
| CNc1nc([C@H](C)NC(=O)c2cc(Cl)cc(C(C)(C)C#N)c2)n(-c2ncccn2)n1 [I-137] | 100 | 90 | 80 | 100 | 100 | 90 | – | – |
| C[C@H](NC(=O)c1cc(C(F)(F)F)cc(C(F)(F)F)c1)c1nc(N(C)C)nn1-c1ncccn1 [I-141, N-[(1S)-1-[5-(dimethylamino)-2-pyrimidin-2-yl-1,2,4-triazol-3-yl]ethyl]-3,5-bis(trifluoromethyl)benzamide] | 100 | 100 | 100 | 100 | 100 | 100 | – | pest or weed control at 1 µg/cm2, 100 g/ha [11]: 80%; pest or weed control at 5 µg/cm2, 500 g/ha [11]: 100% |
| CON(C)c1nc([C@H](C)NC(=O)c2cc(C(F)(F)F)cc(S(C)(=O)=O)c2)n(-c2ncccn2)n1 [I-153] | 100 | 100 | – | – | – | – | 90 | – |
| CON(C)c1nc([C@H](C)NC(=O)c2cc(Cl)cc(C(C)(C)C#N)c2)n(-c2ncccn2)n1 [I-163] | 100 | 100 | – | 100 | 100 | – | 100 | – |
| CC(NC(=O)c1cc(C(F)(F)F)cc(C(F)(F)F)c1)c1nc(N(C)C)nn1-c1ncc(Cl)cn1 (stereo not drawn) [I-165] | 100 | 100 | – | 100 | 100 | – | 90 | – |
| C[C@H](NC(=O)c1cc(Cl)cc(C(C)(C)C#N)c1)c1nc(N(C)C)nn1-c1ncc(Cl)cn1 [I-178] | 100 | 100 | – | 100 | 100 | – | 90 | – |
| C[C@H](NC(=O)c1cc(Cl)cc(S(C)(=O)=O)c1)c1nc(N(C)C)nn1-c1ncc(Cl)cn1 [I-179] | 100 | 100 | – | 100 | 100 | – | 90 | – |
| CNc1nc([C@H](C)NC(=O)c2cc(OC(F)(F)F)cc(S(=O)(=O)C3CC3)c2)n(-c2ncccn2)n1 [I-184] | 100 | 100 | – | – | 100 | – | 90 | – |
| C[C@H](NC(=O)c1cc(OC(F)(F)F)cc(S(=O)(=O)C2CC2)c1)c1nc(N)nn1-c1ncccn1 [I-187] | 100 | 100 | – | – | 100 | – | 90 | – |
| CC(NC(=O)c1cc(OC(F)(F)F)cc(S(C)(=O)=O)c1)c1nc(N(C)C)nn1-c1ncc(Cl)cn1 (stereo not drawn) [I-192] | 100 | 100 | – | 100 | 100 | – | 90 | – |
| C[C@H](NC(=O)c1cc(OC(F)(F)F)cc(S(=O)(=O)C2CC2)c1)c1nc(N)nn1-c1ccc(C#N)cn1 [I-205] | – | – | – | 100 | – | – | 90 | – |
| C[C@H](NC(=O)c1cc(OC(F)(F)F)cc(C2CC2)c1)c1nc(N)nn1-c1ncccn1 [I-216] | – | – | – | 100 | – | – | 90 | – |
